According to the NIST ThermoML archive (doi:10.1021/je300958c):
Numbers after ± are expanded uncertainties.

Assay: relative permittivity at zero frequency (dimensionless)
Settings: 101.33 kPa, Liquid, impedance/gain phase analyzer

N#CCCCCCC#N [heptanedinitrile]
relative permittivity at zero frequency (248.15 K): 36.21 ± 0.1 | relative permittivity at zero frequency (250.65 K): 35.82 ± 0.1 | relative permittivity at zero frequency (253.15 K): 35.44 ± 0.1 | relative permittivity at zero frequency (255.65 K): 35.06 ± 0.1 | relative permittivity at zero frequency (258.15 K): 34.7 ± 0.1 | relative permittivity at zero frequency (260.65 K): 34.35 ± 0.1 | relative permittivity at zero frequency (263.15 K): 33.99 ± 0.1 | relative permittivity at zero frequency (265.65 K): 33.65 ± 0.1 | relative permittivity at zero frequency (268.15 K): 33.31 ± 0.1 | relative permittivity at zero frequency (270.65 K): 32.98 ± 0.1 | relative permittivity at zero frequency (273.15 K): 32.66 ± 0.1 | relative permittivity at zero frequency (275.65 K): 32.36 ± 0.1 | relative permittivity at zero frequency (278.15 K): 32.04 ± 0.1 | relative permittivity at zero frequency (280.65 K): 31.73 ± 0.1 | relative permittivity at zero frequency (283.15 K): 31.43 ± 0.1 | relative permittivity at zero frequency (285.65 K): 31.14 ± 0.1 | relative permittivity at zero frequency (288.15 K): 30.86 ± 0.1 | relative permittivity at zero frequency (290.65 K): 30.57 ± 0.1 | relative permittivity at zero frequency (293.15 K): 30.28 ± 0.1 | relative permittivity at zero frequency (295.65 K): 30 ± 0.1 | relative permittivity at zero frequency (298.15 K): 29.71 ± 0.1 | relative permittivity at zero frequency (300.65 K): 29.45 ± 0.1 | relative permittivity at zero frequency (303.15 K): 29.18 ± 0.1 | relative permittivity at zero frequency (305.65 K): 28.92 ± 0.1 | relative permittivity at zero frequency (308.15 K): 28.67 ± 0.1 | relative permittivity at zero frequency (310.65 K): 28.42 ± 0.1 | relative permittivity at zero frequency (313.15 K): 28.17 ± 0.1 | relative permittivity at zero frequency (315.65 K): 27.94 ± 0.1 | relative permittivity at zero frequency (318.15 K): 27.68 ± 0.1 | relative permittivity at zero frequency (320.65 K): 27.46 ± 0.1 | relative permittivity at zero frequency (323.15 K): 27.23 ± 0.1 | relative permittivity at zero frequency (325.65 K): 27 ± 0.1 | relative permittivity at zero frequency (328.15 K): 26.77 ± 0.1 | relative permittivity at zero frequency (330.65 K): 26.56 ± 0.1 | relative permittivity at zero frequency (333.15 K): 26.32 ± 0.1

N#CCCCCCCC#N [octanedinitrile]
relative permittivity at zero frequency (273.15 K): 28.23 ± 0.1 | relative permittivity at zero frequency (275.65 K): 28 ± 0.1 | relative permittivity at zero frequency (278.15 K): 27.77 ± 0.1 | relative permittivity at zero frequency (280.65 K): 27.52 ± 0.1 | relative permittivity at zero frequency (283.15 K): 27.29 ± 0.1 | relative permittivity at zero frequency (285.65 K): 27.06 ± 0.1 | relative permittivity at zero frequency (288.15 K): 26.82 ± 0.1 | relative permittivity at zero frequency (290.65 K): 26.6 ± 0.1 | relative permittivity at zero frequency (293.15 K): 26.36 ± 0.1 | relative permittivity at zero frequency (295.65 K): 26.16 ± 0.1 | relative permittivity at zero frequency (298.15 K): 25.94 ± 0.1 | relative permittivity at zero frequency (300.65 K): 25.75 ± 0.1 | relative permittivity at zero frequency (303.15 K): 25.55 ± 0.1 | relative permittivity at zero frequency (305.65 K): 25.32 ± 0.1 | relative permittivity at zero frequency (308.15 K): 25.11 ± 0.1 | relative permittivity at zero frequency (310.65 K): 24.94 ± 0.1 | relative permittivity at zero frequency (313.15 K): 24.74 ± 0.1 | relative permittivity at zero frequency (315.65 K): 24.55 ± 0.1 | relative permittivity at zero frequency (318.15 K): 24.37 ± 0.1 | relative permittivity at zero frequency (320.65 K): 24.2 ± 0.1 | relative permittivity at zero frequency (323.15 K): 24 ± 0.1 | relative permittivity at zero frequency (325.65 K): 23.8 ± 0.1 | relative permittivity at zero frequency (328.15 K): 23.63 ± 0.1 | relative permittivity at zero frequency (330.65 K): 23.47 ± 0.1 | relative permittivity at zero frequency (333.15 K): 23.3 ± 0.1

N#CCCC#N [butanedinitrile]
relative permittivity at zero frequency (333.15 K): 56.09 ± 0.1 | relative permittivity at zero frequency (335.65 K): 55.46 ± 0.1 | relative permittivity at zero frequency (338.15 K): 54.85 ± 0.1 | relative permittivity at zero frequency (340.65 K): 54.29 ± 0.1 | relative permittivity at zero frequency (343.15 K): 53.68 ± 0.1 | relative permittivity at zero frequency (345.65 K): 53.11 ± 0.1 | relative permittivity at zero frequency (348.15 K): 52.52 ± 0.1 | relative permittivity at zero frequency (350.65 K): 51.95 ± 0.1 | relative permittivity at zero frequency (353.15 K): 51.36 ± 0.1 | relative permittivity at zero frequency (355.65 K): 50.81 ± 0.1 | relative permittivity at zero frequency (358.15 K): 50.28 ± 0.1 | relative permittivity at zero frequency (360.65 K): 49.73 ± 0.1 | relative permittivity at zero frequency (363.15 K): 49.18 ± 0.1 | relative permittivity at zero frequency (365.65 K): 48.66 ± 0.1 | relative permittivity at zero frequency (368.15 K): 48.14 ± 0.1 | relative permittivity at zero frequency (370.65 K): 47.63 ± 0.1 | relative permittivity at zero frequency (373.15 K): 47.11 ± 0.1

N#CCCCC#N [pentanedinitrile]
relative permittivity at zero frequency (248.15 K): 40.78 ± 0.1 | relative permittivity at zero frequency (250.65 K): 40.45 ± 0.1 | relative permittivity at zero frequency (253.15 K): 40.08 ± 0.1 | relative permittivity at zero frequency (255.65 K): 39.78 ± 0.1 | relative permittivity at zero frequency (258.15 K): 39.42 ± 0.1 | relative permittivity at zero frequency (260.65 K): 39.08 ± 0.1 | relative permittivity at zero frequency (263.15 K): 38.74 ± 0.1 | relative permittivity at zero frequency (265.65 K): 38.4 ± 0.1 | relative permittivity at zero frequency (268.15 K): 38.1 ± 0.1 | relative permittivity at zero frequency (270.65 K): 37.78 ± 0.1 | relative permittivity at zero frequency (273.15 K): 37.44 ± 0.1 | relative permittivity at zero frequency (275.65 K): 37.16 ± 0.1 | relative permittivity at zero frequency (278.15 K): 36.83 ± 0.1 | relative permittivity at zero frequency (280.65 K): 36.56 ± 0.1 | relative permittivity at zero frequency (283.15 K): 36.27 ± 0.1 | relative permittivity at zero frequency (285.65 K): 35.97 ± 0.1 | relative permittivity at zero frequency (288.15 K): 35.71 ± 0.1 | relative permittivity at zero frequency (290.65 K): 35.41 ± 0.1 | relative permittivity at zero frequency (293.15 K): 35.14 ± 0.1 | relative permittivity at zero frequency (295.65 K): 34.87 ± 0.1 | relative permittivity at zero frequency (298.15 K): 34.6 ± 0.1 | relative permittivity at zero frequency (300.65 K): 34.33 ± 0.1 | relative permittivity at zero frequency (303.15 K): 34.04 ± 0.1 | relative permittivity at zero frequency (305.65 K): 33.83 ± 0.1 | relative permittivity at zero frequency (308.15 K): 33.59 ± 0.1 | relative permittivity at zero frequency (310.65 K): 33.35 ± 0.1 | relative permittivity at zero frequency (313.15 K): 33.13 ± 0.1 | relative permittivity at zero frequency (315.65 K): 32.87 ± 0.1 | relative permittivity at zero frequency (318.15 K): 32.67 ± 0.1 | relative permittivity at zero frequency (320.65 K): 32.44 ± 0.1 | relative permittivity at zero frequency (323.15 K): 32.21 ± 0.1

N#CCCCCC#N [hexanedinitrile]
relative permittivity at zero frequency (278.15 K): 34.7 ± 0.1 | relative permittivity at zero frequency (280.65 K): 34.35 ± 0.1 | relative permittivity at zero frequency (283.15 K): 34.01 ± 0.1 | relative permittivity at zero frequency (285.65 K): 33.67 ± 0.1 | relative permittivity at zero frequency (288.15 K): 33.36 ± 0.1 | relative permittivity at zero frequency (290.65 K): 33.04 ± 0.1 | relative permittivity at zero frequency (293.15 K): 32.73 ± 0.1 | relative permittivity at zero frequency (295.65 K): 32.41 ± 0.1 | relative permittivity at zero frequency (298.15 K): 32.12 ± 0.1 | relative permittivity at zero frequency (300.65 K): 31.83 ± 0.1 | relative permittivity at zero frequency (303.15 K): 31.53 ± 0.1 | relative permittivity at zero frequency (305.65 K): 31.26 ± 0.1 | relative permittivity at zero frequency (308.15 K): 30.96 ± 0.1 | relative permittivity at zero frequency (310.65 K): 30.67 ± 0.1 | relative permittivity at zero frequency (313.15 K): 30.38 ± 0.1 | relative permittivity at zero frequency (315.65 K): 30.09 ± 0.1 | relative permittivity at zero frequency (318.15 K): 29.8 ± 0.1 | relative permittivity at zero frequency (320.65 K): 29.5 ± 0.1 | relative permittivity at zero frequency (323.15 K): 29.22 ± 0.1 | relative permittivity at zero frequency (325.65 K): 28.94 ± 0.1 | relative permittivity at zero frequency (328.15 K): 28.69 ± 0.1 | relative permittivity at zero frequency (330.65 K): 28.46 ± 0.1 | relative permittivity at zero frequency (333.15 K): 28.21 ± 0.1 | relative permittivity at zero frequency (335.65 K): 27.98 ± 0.1 | relative permittivity at zero frequency (338.15 K): 27.73 ± 0.1 | relative permittivity at zero frequency (340.65 K): 27.52 ± 0.1 | relative permittivity at zero frequency (343.15 K): 27.3 ± 0.1 | relative permittivity at zero frequency (345.65 K): 27.09 ± 0.1 | relative permittivity at zero frequency (348.15 K): 26.83 ± 0.1 | relative permittivity at zero frequency (350.65 K): 26.6 ± 0.1 | relative permittivity at zero frequency (353.15 K): 26.4 ± 0.1
